For data set [1], the target named is HIV-1 integrase (Human immunodeficiency virus type 1 group M subtype B, UniProt P12497). Nature of the data set: HIV-1 integrase inhibition assay in vitro (radiolabeled duplex substrate, U5 end of HIV LTR). Format: biochemical. On the procedure:
For the purpose of Table 1, the HIV-1 integrase inhibition assay was carried out following a known procedure (Burke, Jr. T. R. et al., J. Med. Chem. 38, 4171-4178 (1995)). A suitable radiolabeled duplex substrate corresponding to the U5 end of the HIV LTR was used.

In data set [2] the test system is HIV-1 laboratory viral strain NL4.3. Nature of the data set: Anti-viral assay in vitro (MTT, infected MT-4 cells). The class given is cell-based. The following applies: reduce virus replication in cell culture by 50%, six days. Here is the method: (§1) To evaluate the EC50 of our compounds, various drug concentrations are incubated with the infected cell for six days and then the metabolic activity of the cells is monitored by the MTT assay. (See A. J. Japour et al, Antimicrobial Agents and Chemotherapy, 37, 1095-1101, 1993 and R. Pauwels et al. Journal of Virological Methods, 20, 309-321, 1988).
(§2) We use the laboratory viral strain NL4.3 as wild type virus and the cell line used is MT-4 which is a T-cell line highly sensitive to HIV-1. We also use some WT clinical strains. To address the resistance issue we assay the inhibitors with NL4.3 mutants which are designed to be resistant to specific commercially available inhibitors. The following reagents were obtained through the AIDS Research and Reference Reagent Program, division of AIDS, NIAID, NIH: pNL4.3 from Dr. Malcolm Martin; MT-4 cell line from Dr. Douglas Richman. Wild type (WT) clinical strains were obtained from “Laboratoire de santé publique du Québec”.

The subject of data set [3] is MT-4 cell line. Nature of the data set: Cytotoxicity assay in vitro (MTT, virus omitted). The class given is cell-based. On the procedure: as §1, §2
The same MTT assay is used to evaluate the CCIC50 of our compounds except that the virus is omitted.

Where [4] appears, read: IC50, concentration of drug required to reduce the enzyme activity by 50%.
Setting [5] is: Human immunodeficiency virus 1, MT4, 144 h.
Where [6] appears, read: concentration of drug required to reduce the enzyme activity by 50%, read-out: IC50.

For orientation: pIC50 means the negative decadic logarithm of the IC50, by convention in mol/L. By pEC50 is commonly meant the EC50 on a negative log10 scale, so that one unit is a factor of ten.

pEC50, pIC50: −log10 of the molar value. Where a name gives a salt, the structure may show the parent alone. Read-outs that look alike come from different tables or passages of the source.

Molecule `Cc1nc(N=Nc2cccc(C(=O)O)c2C(=O)O)c(COP(=O)(O)O)c(C=O)c1O` [Example 47, 6-(2,3-Dicarboxyphenylazo)-pyridoxal-5-phosphate] had a pIC50 in data set [1] (setting [4]) of 6.78. The pEC50 in data set [2] (setting [5]) is 5.00. Moreover, the CCIC50 in data set [3] (human, 6 days) came to 17 µM.

Regarding `Cc1nc(N=Nc2cc(C(=O)O)ccc2Cl)c(COP(=O)(O)O)c(C=O)c1O` [Example 40, 6-(5-Carboxy-2-chlorophenylazo)-pyridoxal-5-phosphate], the pIC50 in data set [1] (setting [6]) is 5.47. In addition, the pEC50 in data set [2] (read-out: EC50) is 4.77. In data set [3] (reduce cell survival by 50%, MTT assay, virus omitted), this molecule showed a CCIC50 above 100 µM.

`Cc1nc(N=Nc2ccccc2C(=O)O)c(COP(=O)(O)O)c(C=O)c1O` [Example 48, 6-(2-Carboxyphenylazo)-pyridoxal-5-phosphate] gave a negative logarithm of the IC50 (pIC50) in data set [1] (setting [4]) of 6.46. The pEC50 in data set [2] (setting [5]) is below 4.70. The molecule also returned a CCIC50 in data set [3] (human, 6 days) above 100 µM.

For the molecule `Cc1nc(N=Nc2ccc(S(N)(=O)=O)cc2)c(COP(=O)(O)O)c(C=O)c1O` [Example 2, 6-(4-Sulfamoylphenylazo)-pyridoxal-5-phosphate], the negative logarithm of the IC50 (pIC50) in data set [1] (setting [4]) is 6.60. The same molecule had a pEC50 in data set [2] (setting [5]) of 5.30. The CCIC50 in data set [3] (human, 6 days) is above 100 µM.

For the molecule `Cc1nc(N=Nc2ccc(S(=O)(=O)Nc3nccs3)cc2)c(COP(=O)(O)O)c(C=O)c1O` [Example 24, 6-[4-(2-Thiazolylsulfamoyl)phenylazo]-pyridoxal-5-phosphate], in data set [1] (setting [4]), the pIC50 was 6.44. Further, the negative-log EC50 (pEC50) in data set [2] (setting [5]) was 4.64. The molecule also registered a CCIC50 in data set [3] (human, 6 days) above 100 µM.

In data set [1] (setting [4]), `Cc1nc(N=Nc2cccc(S(=O)(=O)NC(C)(C)C)c2)c(COP(=O)(O)O)c(C=O)c1O` [Example 9, 6-[3-(tert-Butylsulfamoyl)phenylazo]-pyridoxal-5-phosphate] gave a pIC50 of 5.52. Besides, the pEC50 in data set [2] (setting [5]) is 4.82. Also, in data set [3] (human, 6 days), the CCIC50 worked out at 57 µM.

For `Cc1nc(N=Nc2ccc(S(=O)(=O)NC34CC5CC(CC(C5)C3)C4)cc2)c(COP(=O)(O)O)c(C=O)c1O` [Example 3, 6-[4-(N-(1-Adamantyl)sulfamoyl)phenylazo]-pyridoxal-5-phosphate Hydrochloride], the pIC50 in data set [1] (setting [4]) was 6.70. For the same molecule, the negative logarithm of the EC50 (pEC50) in data set [2] (setting [5]) was 4.70. The same molecule yielded a CCIC50 in data set [3] (human, 6 days) of 12 µM.

Turning to `Cc1nc(N=Nc2ccc(S(=O)(=O)N3CCCCC3)cc2)c(COP(=O)(O)O)c(C=O)c1O` [Example 7, 6-[4-(1-Piperidinesulfonyl)phenylazo]-pyridoxal-5-phosphate], the pIC50 in data set [1] (setting [4]) is 5.60. The molecule also gave a negative logarithm of the EC50 (pEC50) in data set [2] (setting [5]) of 4.90. Also, the CCIC50 in data set [3] (human, 6 days) was above 100 µM.

On to `Cc1nc(N=Nc2cccc(S(=O)(=O)N3CCOCC3)c2)c(COP(=O)(O)O)c(C=O)c1O` [Example 27, 6-[3-(Morpholinesulfamoyl)phenylazo]-pyridoxal-5-phosphate], for which the pIC50 in data set [1] (setting [4]) is 5.96. Also, in data set [2] (setting [5]), the pEC50 is 4.56. Besides, the CCIC50 in data set [3] (human, 6 days) was above 100 µM.

For “6-[4-(N-(2-E-Caprolactamyl)-N-isobutylsulfamoyl)phenylazo]-pyridoxal-5-phosphate Hydrochloride [Example 5]”, the negative logarithm of the IC50 (pIC50) in data set [1] (setting [6]) is 6.22. Further, in data set [2] (read-out: EC50), the pEC50 is 4.77. Moreover, in data set [3], the CCIC50 is above 100 µM.

In turn, `Cc1nc(N=Nc2cccc(C(=O)O)c2C)c(COP(=O)(O)O)c(C=O)c1O` [Example 1, 6-(3-Carboxy-2-methylphenylazo)-pyridoxal-5-phosphate] showed a pIC50 in data set [1] (setting [4]) of 5.92. This molecule had a pEC50 in data set [2] (setting [5]) of 5.70. Besides, in data set [3] (human, 6 days), the CCIC50 was above 100 µM.

Take `Cc1nc(N=Nc2cccc(C(=O)Nc3ccncc3)c2)c(COP(=O)(O)O)c(C=O)c1O` [Example 30, 6-[3-(4-Pyridylcarbamoyl)phenylazo]-pyridoxal-5-phosphate]: in data set [1] (setting [4]), the negative-log IC50 (pIC50) was 5.50. This molecule showed a negative logarithm of the EC50 (pEC50) in data set [2] (setting [5]) of 4.70. In data set [3] (human, 6 days), the CCIC50 is 87 µM.

`Cc1nc(N=Nc2cccc(C(=O)NCC(C)C)c2)c(COP(=O)(O)O)c(C=O)c1O` [Example 13, 6-[3-(Isobutylcarbamoyl)phenylazo]-pyridoxal-5-phosphate] showed a pIC50 in data set [1] (setting [4]) of 5.89. The same molecule showed a pEC50 in data set [2] (setting [5]) of 4.30. The CCIC50 in data set [3] (human, 6 days) turned out to be 90 µM.

In data set [1] (setting [4]), `Cc1nc(N=Nc2cccc(C(=O)Nc3cccc4c3CCCN4)c2)c(COP(=O)(O)O)c(C=O)c1O` [Example 37, 6-[3-(5-(1,2,3,4-Tetrahydroquinolyl)carbamoyl)phenylazo]-pyridoxal-5-phosphate] had a pIC50 of 5.48. The negative logarithm of the EC50 (pEC50) in data set [2] (setting [5]) is 4.59. Moreover, in data set [3] (human, 6 days), the CCIC50 came out at 84 µM.

In data set [1] (setting [4]), `Cc1nc(N=Nc2cccc(C(=O)O)c2Cl)c(COP(=O)(O)O)c(C=O)c1O` [Example 39, 6-(3-Carboxy-2-chlorophenylazo)-pyridoxal-5-phosphate] showed a pIC50 of 5.59. This molecule also gave a negative logarithm of the EC50 (pEC50) in data set [2] (setting [5]) of 5.74. Also, the CCIC50 in data set [3] (human, 6 days) is above 100 µM.

In data set [1] (setting [4]), `Cc1nc(N=Nc2cccc(C(=O)Nc3cccc4cnccc34)c2)c(COP(=O)(O)O)c(C=O)c1O` [Example 31, 6-[3-(5-Isoquinolylcarbamoyl)phenylazo]-pyridoxal-5-phosphate] had a negative-log IC50 (pIC50) of 5.49. In data set [2] (setting [5]), this molecule gave a pEC50 of 4.82. The molecule also returned a CCIC50 in data set [3] (human, 6 days) above 100 µM.

Consider `CCOC(OCC)c1c(O)c(C)nc(N=Nc2cc(C(=O)O)cc(C(=O)O)c2)c1COP(=O)(O)O` [Example 51, 6-(3,5-Dicarboxyphenylazo)-pyridoxal-5-phosphate Diethylacetal], for which, in data set [1] (setting [4]), the pIC50 was 6.90. The molecule also showed a pEC50 in data set [2] (setting [5]) of 6.46. The CCIC50 in data set [3] (human, 6 days) is above 100 µM.

For the molecule `Cc1nc(N=Nc2cc(C(=O)O)cc(C(=O)O)c2)c(COP(=O)(O)O)c(C=O)c1O` [Example 49, 6-(3,5-Dicarboxyphenylazo)-pyridoxal-5-phosphate Methanesulfonic Acid Salt], the negative-log IC50 (pIC50) in data set [1] (setting [4]) was 6.30. In addition, the negative logarithm of the EC50 (pEC50) in data set [2] is 6.56. In data set [3] (human, 6 days), this molecule gave a CCIC50 of 12 µM.
